Results as given in patent publication US10988445B2 (AstraZeneca AB, priority 2015, dated 2021).
Like-named read-outs stand apart in the source and are kept apart here.

System: human TH17 cells
Assay: Inhibition of IL-17 release from human TH17 cells
Assay type: cell-based
Settings: 96 h, isolated human TH17 cells, 4 days culture, IL-17A by HTRF, read-out: pIC50 IL-17 release (converted)
Method in brief: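 TH17 cells (CD4+CXCR3-CCR6+) enriched from healthy-donor PBMC isolated from heparinized whole blood. Supernatants collected on day 4; IL-17A quantified by HTRF.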

| Compound | IC50 (Homo sapiens) | IC50 |
| --- | --- | --- |
| CS(=O)(=O)c1ccc2c(c1)CN(C(=O)CCF)C2C(=O)Nc1ccc(C(O)(C(F)(F)F)C(F)(F)F)cc1 (stereo not shown) [Example 415, 2-(3-Fluoropropanoyl)-N-[4-(1,1,1,3,3,3-hexafluoro-2-hydroxypropan-2-yl)phenyl]-5-(methylsulfonyl)-2,3-dihydro-1H-isoindole-1-carboxamide] | 0.0316 µM |  |
| CCOC1(C(=O)N2Cc3cc(S(C)(=O)=O)ccc3C2C(=O)Nc2ccc(C(O)(C(F)(F)F)C(F)(F)F)cc2)CC1 (stereo not shown) [Example 416, 2-[(1-Ethoxycyclopropyl)carbonyl]-N-[4-(1,1,1,3,3,3-hexafluoro-2-hydroxypropan-2-yl)phenyl]-5-(methylsulfonyl)-2,3-dihydro-1H-isoindole-1-carboxamide] | 0.0316 µM |  |
| COC1(CC(=O)N2Cc3cc(S(C)(=O)=O)ccc3C2C(=O)Nc2ccc(C(O)(C(F)(F)F)C(F)(F)F)cc2)CC1 (stereo not shown) [Example 417, N-[4-(1,1,1,3,3,3-Hexafluoro-2-hydroxypropan-2-yl)phenyl]-2-[(1-methoxycyclopropyl)acetyl]-5-(methylsulfonyl)-2,3-dihydro-1H-isoindole-1-carboxamide] | 0.0316 µM |  |
| C[C@@H](F)CC(=O)N1Cc2cc(S(C)(=O)=O)ccc2C1C(=O)Nc1ccc(C(O)(C(F)(F)F)C(F)(F)F)cc1 (stereo partly drawn) [Example 418, 2-[(3R)-3-Fluorobutanoyl]-N-[4-(1,1,1,3,3,3-hexafluoro-2-hydroxypropan-2-yl)phenyl]-5-(methylsulfonyl)-2,3-dihydro-1H-isoindole-1-carboxamide] | 0.0398 µM |  |
| COC(C)(C)C(=O)N1Cc2cc(S(C)(=O)=O)ccc2C1C(=O)Nc1ccc(C(O)(C(F)(F)F)C(F)(F)F)cc1 (stereo not shown) [Example 419, N-[4-(1,1,1,3,3,3-Hexafluoro-2-hydroxypropan-2-yl)phenyl]-2-(2-methoxy-2-methylpropanoyl)-5-(methylsulfonyl)-2,3-dihydro-1H-isoindole-1-carboxamide] | 0.0501 µM |  |
| CC(C)OC(=O)N1Cc2cc(S(C)(=O)=O)ccc2C1C(=O)Nc1ccc(C(O)(C(F)(F)F)C(F)(F)F)cc1 (stereo not shown) [Example 420, Propan-2-yl 1-{[4-(1,1,1,3,3,3-hexafluoro-2-hydroxypropan-2-yl)phenyl]carbamoyl}-5-(methylsulfonyl)-1,3-dihydro-2H-isoindole-2-carboxylate] | 0.0794 µM |  |
| CC(C)(O)CC(=O)N1Cc2cc(S(C)(=O)=O)ccc2C1C(=O)Nc1ccc(C(O)(C(F)(F)F)C(F)(F)F)cc1 (stereo not shown) [Example 421, N-[4-(1,1,1,3,3,3-Hexafluoro-2-hydroxypropan-2-yl)phenyl]-2-(3-hydroxy-3-methylbutanoyl)-5-(methylsulfonyl)-2,3-dihydro-1H-isoindole-1-carboxamide] | 0.1 µM |  |
| CC(CO)C(=O)N1Cc2cc(S(C)(=O)=O)ccc2C1C(=O)Nc1ccc(C(O)(C(F)(F)F)C(F)(F)F)cc1 (stereo not shown) [Example 425, N-[4-(1,1,1,3,3,3-Hexafluoro-2-hydroxypropan-2-yl)phenyl]-2-(3-hydroxy-2-methylpropanoyl)-5-(methylsulfonyl)-2,3-dihydro-1H-isoindole-1-carboxamide] | 0.0794 µM |  |
| CS(=O)(=O)c1ccc2c(c1)CN(C(=O)CC1(C#N)CC1)C2C(=O)Nc1ccc(C(O)(C(F)(F)F)C(F)(F)F)cc1 (stereo not shown) [Example 427, 2-[(1-Cyanocyclopropyl)acetyl]-N-[4-(1,1,1,3,3,3-hexafluoro-2-hydroxypropan-2-yl)phenyl]-5-(methylsulfonyl)-2,3-dihydro-1H-isoindole-1-carboxamide] | 0.1 µM |  |
| CS(=O)(=O)c1ccc2c(c1)CN(C(=O)C1CC(O)C1)C2C(=O)Nc1ccc(C(O)(C(F)(F)F)C(F)(F)F)cc1 (stereo not drawn) [Example 430, N-[4-(1,1,1,3,3,3-Hexafluoro-2-hydroxypropan-2-yl)phenyl]-2-[(trans-3-hydroxycyclobutyl)carbonyl]-5-(methylsulfonyl)-2,3-dihydro-1H-isoindole-1-carboxamide] | 0.126 µM |  |
| C[C@H](O)CC(=O)N1Cc2cc(S(C)(=O)=O)ccc2C1C(=O)Nc1ccc(C(O)(C(F)(F)F)C(F)(F)F)cc1 (stereo partly drawn) [Example 433, N-[4-(1,1,1,3,3,3-Hexafluoro-2-hydroxypropan-2-yl)phenyl]-2-[(3S)-3-hydroxybutanoyl]-5-(methylsulfonyl)-2,3-dihydro-1H-isoindole-1-carboxamide] | 0.0794 µM |  |
| COC1(C(=O)N2Cc3cc(S(C)(=O)=O)ccc3C2C(=O)Nc2ccc(C(O)(C(F)(F)F)C(F)(F)F)cc2)CCCC1 (stereo not shown) [Example 434] | 0.0251 µM |  |
| CC(=O)N1Cc2cc(S(C)(=O)=O)ccc2C1C(=O)Nc1ccc(C(O)(C(F)(F)F)C(F)(F)F)c(F)c1 (stereo not shown) [Example 435, 2-Acetyl-N-[3-fluoro-4-(1,1,1,3,3,3-hexafluoro-2-hydroxypropan-2-yl)phenyl]-5-(methylsulfonyl)-2,3-dihydro-1H-isoindole-1-carboxamide] | 0.02 µM |  |
| CS(=O)(=O)c1ccc2c(c1)CN(C(=O)C1(C#N)CC1)C2C(=O)Nc1ccc(C(O)(C(F)(F)F)C(F)(F)F)cc1F (stereo not shown) [Example 436, 2-[(1-Cyanocyclopropyl)carbonyl]-N-[2-fluoro-4-(1,1,1,3,3,3-hexafluoro-2-hydroxypropan-2-yl)phenyl]-5-(methylsulfonyl)-2,3-dihydro-1H-isoindole-1-carboxamide] | 0.0158 µM |  |
| CC(=O)N1Cc2cc(S(C)(=O)=O)ccc2C1C(=O)Nc1ccc(C(O)(C(F)(F)F)C(F)(F)F)cc1F (stereo not shown) [Example 437, 2-Acetyl-N-[2-fluoro-4-(1,1,1,3,3,3-hexafluoro-2-hydroxypropan-2-yl)phenyl]-5-(methylsulfonyl)-2,3-dihydro-1H-isoindole-1-carboxamide] | 0.02 µM |  |
| CS(=O)(=O)c1ccc2c(c1)CN(C(=O)C1(C#N)CC1)C2C(=O)Nc1ccc(C(O)(C(F)(F)F)C(F)(F)F)c(F)c1 (stereo not shown) [Example 439, 2-[(1-Cyanocyclopropyl)carbonyl]-N-[3-fluoro-4-(1,1,1,3,3,3-hexafluoro-2-hydroxypropan-2-yl)phenyl]-5-(methylsulfonyl)-2,3-dihydro-1H-isoindole-1-carboxamide] | 0.0251 µM |  |
| COC1(C(=O)N2Cc3cc(S(C)(=O)=O)ccc3C2C(=O)Nc2ccc(C(O)(C(F)(F)F)C(F)(F)F)c(F)c2)CC1 (stereo not shown) [Example 440, N-[3-Fluoro-4-(1,1,1,3,3,3-hexafluoro-2-hydroxypropan-2-yl)phenyl]-2-[(1-methoxycyclopropyl)carbonyl]-5-(methylsulfonyl)-2,3-dihydro-1H-isoindole-1-carboxamide] | 0.0316 µM |  |
| COC1(C(=O)N2Cc3cc(S(C)(=O)=O)ccc3C2C(=O)Nc2ccc(C(O)(C(F)(F)F)C(F)(F)F)cc2F)CC1 (stereo not shown) [Example 441, N-[2-Fluoro-4-(1,1,1,3,3,3-hexafluoro-2-hydroxypropan-2-yl)phenyl]-2-[(1-methoxycyclopropyl)carbonyl]-5-(methylsulfonyl)-2,3-dihydro-1H-isoindole-1-carboxamide] | 0.0251 µM |  |
| CS(=O)(=O)c1ccc2c(c1)CN(C=O)C2C(=O)Nc1ccc(C(O)(C(F)(F)F)C(F)(F)F)cc1F (stereo not shown) [Example 442] | 0.0501 µM |  |
| CC1(C(=O)N2Cc3cc(S(C)(=O)=O)ccc3C2C(=O)Nc2ccc(C(O)(C(F)(F)F)C(F)(F)F)cc2)COC1 (stereo not shown) [Example 443] | 0.1 µM |  |
| CS(=O)(=O)c1ccc2c(c1)CN(C(=O)C1COC1)C2C(=O)Nc1ccc(C(O)(C(F)(F)F)C(F)(F)F)cc1 (stereo not shown) [Example 444, N-[4-(1,1,1,3,3,3-Hexafluoro-2-hydroxypropan-2-yl)phenyl]-5-(methylsulfonyl)-2-(oxetan-3-ylcarbonyl)-2,3-dihydro-1H-isoindole-1-carboxamide] | 0.0631 µM |  |
| CS(=O)(=O)c1ccc2c(c1)CN(C(=O)C1(F)CC1)C2C(=O)Nc1ccc(C(O)(C(F)(F)F)C(F)(F)F)cc1 (stereo not shown) [Example 446, 2-[(1-Fluorocyclopropyl)carbonyl]-N-[4-(1,1,1,3,3,3-hexafluoro-2-hydroxypropan-2-yl)phenyl]-5-(methylsulfonyl)-2,3-dihydro-1H-isoindole-1-carboxamide] | 0.0316 µM |  |
| CCC(OC)C(=O)N1Cc2cc(S(C)(=O)=O)ccc2C1C(=O)Nc1ccc(C(O)(C(F)(F)F)C(F)(F)F)cc1 (stereo not shown) [Example 447, N-[4-(1,1,1,3,3,3-Hexafluoro-2-hydroxypropan-2-yl)phenyl]-2-(2-methoxybutanoyl)-5-(methylsulfonyl)-2,3-dihydro-1H-isoindole-1-carboxamide] | 0.0501 µM |  |
| COC1(C(=O)N2Cc3cc(S(C)(=O)=O)ccc3C2C(=O)Nc2ccc(C(O)(C(F)(F)F)C(F)(F)F)cc2)CCC1 (stereo not shown) [Example 448, N-[4-(1,1,1,3,3,3-Hexafluoro-2-hydroxypropan-2-yl)phenyl]-2-[(1-methoxycyclobutyl)carbonyl]-5-(methylsulfonyl)-2,3-dihydro-1H-isoindole-1-carboxamide] |  | 0.0794 µM |
| CCNC(=O)N1Cc2cc(S(C)(=O)=O)ccc2C1C(=O)Nc1ccc(C(O)(C(F)(F)F)C(F)(F)F)cc1 (stereo not shown) [Example 454, N^2-Ethyl-N^1-[4-(1,1,1,3,3,3-hexafluoro-2-hydroxypropan-2-yl)phenyl]-5-(methylsulfonyl)-1,3-dihydro-2H-isoindole-1,2-dicarboxamide] | 0.0398 µM |  |
| CS(=O)(=O)c1ccc2c(c1)CN(C(N)=O)C2C(=O)Nc1ccc(C(O)(C(F)(F)F)C(F)(F)F)cc1 (stereo not shown) [Example 455, N^1-[4-(1,1,1,3,3,3-Hexafluoro-2-hydroxypropan-2-yl)phenyl]-5-(methylsulfonyl)-1,3-dihydro-2H-isoindole-1,2-dicarboxamide] | 0.1 µM |  |
| CS(=O)(=O)c1ccc2c(c1)CN(C(=O)NC1CC1)C2C(=O)Nc1ccc(C(O)(C(F)(F)F)C(F)(F)F)cc1 (stereo not shown) [Example 456, N^2—Cyclopropyl-N^1-[4-(1,1,1,3,3,3-hexafluoro-2-hydroxypropan-2-yl)phenyl]-5-(methylsulfonyl)-1,3-dihydro-2H-isoindole-1,2-dicarboxamide] | 0.0126 µM |  |
| COC(=O)N1Cc2cc(S(=O)(=O)C3CC3)ccc2C1C(=O)Nc1ccc(C(O)(C(F)(F)F)C(F)(F)F)cc1 (stereo not shown) [Example 602, Methyl 5-(cyclopropylsulfonyl)-1-{[4-(1,1,1,3,3,3-hexafluoro-2-hydroxypropan-2-yl)phenyl]carbamoyl}-1,3-dihydro-2H-isoindole-2-carboxylate] | 0.0251 µM |  |
